Data as given in ChEMBL document CHEMBL1201861, “Genomics of Drug Sensitity in Cancer screening data, Wellcome Trust Sanger Institute”.

Experiments:
SK-LU-1 = assay: cells; type: functional, cell-based; conditions: Homo sapiens;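 also: cell viability assay measuring growth inhibition of human SK-LU-1 cells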
Description: SANGER: Inhibition of human SK-LU-1 cell growth in a cell viability assay.

K052 = assay: cells; type: functional, cell-based; conditions: Homo sapiens;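 also: Read-out from a cell viability assay, IC50 reflecting suppression of K052 cell growth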
Description: SANGER: Inhibition of human K052 cell growth in a cell viability assay.

CAL-62 = assay: cells; type: functional, cell-based; conditions: Homo sapiens;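 also: growth inhibition of CAL-62 cells, read out with a cell viability assay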
Description: SANGER: Inhibition of human CAL-62 cell growth in a cell viability assay.

T47D = assay: cells; type: functional, cell-based; conditions: Homo sapiens;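 also: growth inhibition of human T47D cells, measured with a cell viability assay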
Description: SANGER: Inhibition of human T47D cell growth in a cell viability assay.

IMR-5 = assay: cells; type: functional, cell-based; conditions: Homo sapiens;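 also: growth inhibition of human IMR-5 cells, read out with a cell viability assay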
Description: SANGER: Inhibition of human IMR-5 cell growth in a cell viability assay.

BXPC-3 = assay: cells; type: functional, cell-based; conditions: Homo sapiens;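 also: growth inhibition of human BxPC-3 cells, read out by a cell viability assay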
Description: SANGER: Inhibition of human BxPC-3 cell growth in a cell viability assay.

RL = assay: cells; type: functional, cell-based; conditions: Homo sapiens
Description: SANGER: Inhibition of human RL cell growth in a cell viability assay.

UACC-62 = assay: cells; type: functional, cell-based; conditions: Homo sapiens;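 also: growth inhibition of human UACC-62 cells, read out by a cell viability assay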
Description: SANGER: Inhibition of human UACC-62 cell growth in a cell viability assay.

HCT-15 = assay: cells; type: functional, cell-based; conditions: Homo sapiens;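 also: cell viability readout, IC50 reflecting suppression of HCT-15 cell growth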
Description: SANGER: Inhibition of human HCT-15 cell growth in a cell viability assay.

SK-MEL-28 = assay: cells; type: functional, cell-based; conditions: Homo sapiens;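 also: growth inhibition of human SK-MEL-28 cells, read out with a cell viability assay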
Description: SANGER: Inhibition of human SK-MEL-28 cell growth in a cell viability assay.

SW-620 = assay: cells; type: functional, cell-based; conditions: Homo sapiens;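 also: growth inhibition of human SW-620 cells, measured by a cell viability assay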
Description: SANGER: Inhibition of human SW620 cell growth in a cell viability assay.

GMS-10 = assay: cells; type: functional, cell-based; conditions: Homo sapiens;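 also: growth inhibition of GMS-10 cells, read out as cell viability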
Description: SANGER: Inhibition of human GMS-10 cell growth in a cell viability assay.

CESS = assay: SANGER: Inhibition of human CESS cell growth in a cell viability assay.; type: functional, cell-based
ABC-1 = assay: cells; type: functional, cell-based; conditions: Homo sapiens;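 also: growth inhibition of human ABC-1 cells, read out by a cell viability assay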
Description: SANGER: Inhibition of human ABC-1 cell growth in a cell viability assay.

Panc1005 = assay: cells; type: functional, cell-based; conditions: Homo sapiens;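 also: growth inhibition of human PANC-10-05 cells, measured by a cell viability assay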
Description: SANGER: Inhibition of human PANC-10-05 cell growth in a cell viability assay.

Calu-3 = assay: cells; type: functional, cell-based; conditions: Homo sapiens;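 also: growth inhibition of human Calu-3 cells, determined with a cell viability assay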
Description: SANGER: Inhibition of human Calu-3 cell growth in a cell viability assay.

NCI-H1882 = assay: cells; type: functional, cell-based; conditions: Homo sapiens;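 also: growth inhibition of the cell line, determined with a viability assay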
Description: SANGER: Inhibition of human NCI-H1882 cell growth in a cell viability assay.

HCC1395 = assay: cells; type: functional, cell-based; conditions: Homo sapiens;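 also: growth inhibition of HCC1395 cells, read out by a cell viability assay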
Description: SANGER: Inhibition of human HCC1395 cell growth in a cell viability assay.

OPM-2 = assay: cells; type: functional, cell-based; conditions: Homo sapiens;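 also: growth of OPM-2 cells measured with a viability assay, IC50 for suppression of proliferation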
Description: SANGER: Inhibition of human OPM-2 cell growth in a cell viability assay.

A253 cell line = assay: cells; type: functional, cell-based; conditions: Homo sapiens;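 also: growth inhibition of A253 cells, read out with a cell viability assay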
Description: SANGER: Inhibition of human A253 cell growth in a cell viability assay.

HuP-T4 = assay: cells; type: functional, cell-based; conditions: Homo sapiens;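 also: cell viability assay measuring how much HuP-T4 cell growth is inhibited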
Description: SANGER: Inhibition of human HuP-T4 cell growth in a cell viability assay.

FaDu = assay: cells; type: functional, cell-based; conditions: Homo sapiens;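 also: cell viability readout of growth inhibition in FaDu cells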
Description: SANGER: Inhibition of human FADU cell growth in a cell viability assay.

TYK-nu = assay: cells; type: functional, cell-based; conditions: Homo sapiens;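 also: growth inhibition of human TYK-nu cells, read out by a cell viability assay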
Description: SANGER: Inhibition of human TYK-nu cell growth in a cell viability assay.

U2OS = assay: cells; type: functional, cell-based, U-2-OS; conditions: Homo sapiens;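 also: growth inhibition of human U-2-OS cells, determined with a cell viability assay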
Description: SANGER: Inhibition of human U-2-OS cell growth in a cell viability assay.

HT1197 = assay: cells; type: functional, cell-based, HT-1197; conditions: Homo sapiens
Description: SANGER: Inhibition of human HT-1197 cell growth in a cell viability assay.

HCC1954 = assay: cells; type: functional, cell-based; conditions: Homo sapiens;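 also: growth inhibition of human HCC1954 cells, read out with a cell viability assay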
Description: SANGER: Inhibition of human HCC1954 cell growth in a cell viability assay.

RCM-1 = assay: cells; type: functional, cell-based; conditions: Homo sapiens;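 also: growth inhibition of the RCM-1 line, determined with a cell viability readout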
Description: SANGER: Inhibition of human RCM-1 cell growth in a cell viability assay.

BFTC-909 = assay: cells; type: functional, cell-based; conditions: Homo sapiens
Description: SANGER: Inhibition of human BFTC-909 cell growth in a cell viability assay.

LU-165 = assay: cells; type: functional, cell-based; conditions: Homo sapiens
Description: SANGER: Inhibition of human LU-165 cell growth in a cell viability assay.

C3A = assay: cells; type: functional, cell-based; conditions: Homo sapiens;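 also: growth inhibition of C3A human cells, quantified with a cell viability readout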
Description: SANGER: Inhibition of human C3A cell growth in a cell viability assay.

HSC-2 = assay: cells; type: functional, cell-based; conditions: Homo sapiens;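 also: growth inhibition of human HSC-2 cells, read out by a cell viability assay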
Description: SANGER: Inhibition of human HSC-2 cell growth in a cell viability assay.

SNU-C1 = assay: cells; type: functional, cell-based; conditions: Homo sapiens;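 also: growth inhibition of SNU-C1 human cells, read out by a cell viability assay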
Description: SANGER: Inhibition of human SNU-C1 cell growth in a cell viability assay.

MDA-MB-415 = assay: cells; type: functional, cell-based; conditions: Homo sapiens
NCI-H64 = assay: cells; type: functional, cell-based; conditions: Homo sapiens;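 also: growth inhibition of NCI-H64 cells, read out with a cell viability assay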
Description: SANGER: Inhibition of human NCI-H64 cell growth in a cell viability assay.

CHP-126 = assay: cells; type: functional, cell-based; conditions: Homo sapiens
Description: SANGER: Inhibition of human CHP-126 cell growth in a cell viability assay.

CAMA-1 = assay: cells; type: functional, cell-based; conditions: Homo sapiens;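 also: growth inhibition of CAMA-1 cells, read out with a cell viability assay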
Description: SANGER: Inhibition of human CAMA-1 cell growth in a cell viability assay.

KYSE-270 = assay: cells; type: functional, cell-based; conditions: Homo sapiens;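 also: cell growth inhibition measured with a viability assay in the human KYSE-270 line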
Description: SANGER: Inhibition of human KYSE-270 cell growth in a cell viability assay.

A204 = assay: cells; type: functional, cell-based; conditions: Homo sapiens;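 also: growth inhibition of human A204 cells, read out with a cell viability assay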
Description: SANGER: Inhibition of human A204 cell growth in a cell viability assay.

MEL-JUSO = assay: cells; type: functional, cell-based; conditions: Homo sapiens;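 also: growth inhibition of human MEL-JUSO cells, read out with a cell viability assay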
Description: SANGER: Inhibition of human MEL-JUSO cell growth in a cell viability assay.

NCI-H1963 = assay: cells; type: functional, cell-based; conditions: Homo sapiens;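 also: cell growth inhibition of the human line, determined with a cell viability assay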
Description: SANGER: Inhibition of human NCI-H1963 cell growth in a cell viability assay.

HCC2157 = assay: cells; type: functional, cell-based; conditions: Homo sapiens;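 also: growth inhibition of the cancer cell line, read out as cell viability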
Description: SANGER: Inhibition of human HCC2157 cell growth in a cell viability assay.

SK-MEL3 = assay: cells; type: functional, cell-based, SK-MEL-3; conditions: Homo sapiens;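 also: growth inhibition of human SK-MEL-3 cells, read out with a cell viability assay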
Description: SANGER: Inhibition of human SK-MEL-3 cell growth in a cell viability assay.

Daoy = assay: cells; type: functional, cell-based; conditions: Homo sapiens;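 also: daoy cell growth inhibition, read out as cell viability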
Description: SANGER: Inhibition of human Daoy cell growth in a cell viability assay.

HSC-4 = assay: cells; type: functional, cell-based; conditions: Homo sapiens;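 also: growth inhibition of human HSC-4 cells, read out with a cell viability assay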
Description: SANGER: Inhibition of human HSC-4 cell growth in a cell viability assay.

NCI-H2141 = assay: cells; type: functional, cell-based; conditions: Homo sapiens;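 also: growth inhibition of human NCI-H2141 cells, read out with a cell viability assay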
Description: SANGER: Inhibition of human NCI-H2141 cell growth in a cell viability assay.

CAPAN-1 = assay: cells; type: functional, cell-based; conditions: Homo sapiens;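 also: growth suppression of CAPAN-1 cells, read out by a cell viability assay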
Description: SANGER: Inhibition of human CAPAN-1 cell growth in a cell viability assay.

MIA PaCa-2 = assay: cells; type: functional, cell-based; conditions: Homo sapiens;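 also: growth inhibition of MIA PaCa-2 cells, read out with a cell viability assay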
Description: SANGER: Inhibition of human MIA-PaCa-2 cell growth in a cell viability assay.

C32 = assay: cells; type: functional, cell-based; conditions: Homo sapiens;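 also: cell viability assay, with IC50 reflecting inhibition of C32 cell growth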
Description: SANGER: Inhibition of human C32 cell growth in a cell viability assay.

MKN-45 = assay: cells; type: functional, cell-based; conditions: Homo sapiens;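 also: growth inhibition of human MKN-45 cells, measured with a cell viability assay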
Description: SANGER: Inhibition of human MKN45 cell growth in a cell viability assay.

RPMI-7951 = assay: cells; type: functional, cell-based; conditions: Homo sapiens
Description: SANGER: Inhibition of human RPMI-7951 cell growth in a cell viability assay.

SCC-3 = assay: cells; type: functional, cell-based; conditions: Homo sapiens;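 also: cell viability assay measuring inhibition of SCC-3 cell growth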
Description: SANGER: Inhibition of human SCC-3 cell growth in a cell viability assay.

NCI-H650 = assay: cells; type: functional, cell-based; conditions: Homo sapiens;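 also: growth inhibition of NCI-H650 cells, read out by a viability assay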
Description: SANGER: Inhibition of human NCI-H650 cell growth in a cell viability assay.

EGI-1 = assay: cells; type: functional, cell-based; conditions: Homo sapiens;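 also: cell viability readout used to gauge growth inhibition of EGI-1 cells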
Description: SANGER: Inhibition of human EGI-1 cell growth in a cell viability assay.

G-361 = assay: cells; type: functional, cell-based; conditions: Homo sapiens
AN3-CA = assay: cells; type: functional, cell-based; conditions: Homo sapiens;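 also: growth inhibition of human AN3-CA cells measured by a cell viability assay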
Description: SANGER: Inhibition of human AN3-CA cell growth in a cell viability assay.

KYSE-450 = assay: cells; type: functional, cell-based; conditions: Homo sapiens;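 also: cell growth inhibition measured by a viability assay in human KYSE-450 cells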
Description: SANGER: Inhibition of human KYSE-450 cell growth in a cell viability assay.

SW780 = assay: cells; type: functional, cell-based; conditions: Homo sapiens;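 also: growth inhibition of the cells, read out with a cell viability assay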
Description: SANGER: Inhibition of human SW780 cell growth in a cell viability assay.

CHP-212 = assay: cells; type: functional, cell-based; conditions: Homo sapiens
Description: SANGER: Inhibition of human CHP-212 cell growth in a cell viability assay.

SU-DHL-1 = assay: SANGER: Inhibition of human SU-DHL-1 cell growth in a cell viability assay.; type: functional, cell-based
ARH-77 = assay: cells; type: functional, cell-based; conditions: Homo sapiens;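 also: growth inhibition of ARH-77 cells, read out by a cell viability assay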
Description: SANGER: Inhibition of human ARH-77 cell growth in a cell viability assay.

ASPC1 = assay: cells; type: functional, cell-based; conditions: Homo sapiens
Description: SANGER: Inhibition of human AsPC-1 cell growth in a cell viability assay.

IGR-1 = assay: cells; type: functional, cell-based; conditions: Homo sapiens
Description: SANGER: Inhibition of human IGR-1 cell growth in a cell viability assay.

Work on `C/C=C(/C)C(=O)O[C@H]1C(C)=C2[C@H]([C@@H]1OC(=O)CCCCCCC)[C@@](C)(OC(C)=O)C[C@H](OC(=O)CCC)[C@@]1(O)[C@H]2OC(=O)[C@@]1(C)O` [THAPSIGARGIN] yielded an IC50 (SK-LU-1) of 1.16 nM, an IC50 (K052) of 495 nM and an IC50 (CAL-62) of 71.6 nM. It also gave an IC50 (T47D) of over 512 nM, an IC50 (IMR-5) of 15.6 nM and an IC50 (BXPC-3) of 6.53 nM. The IC50 (RL) was over 512 nM, the IC50 (UACC-62) was 66.4 nM and the IC50 (HCT-15) was 155 nM. The IC50 (SK-MEL-28) was over 512 nM, the IC50 (SW-620) was 3.02 nM and the IC50 (GMS-10) was over 512 nM. The IC50 (CESS) was 35.4 nM, the IC50 (ABC-1) was 3.19 nM and the IC50 (Panc1005) was 26.1 nM. The IC50 (Calu-3) was over 512 nM, the IC50 (NCI-H1882) was over 512 nM and the IC50 (HCC1395) was 3.15 nM. For the same molecule, the IC50 (OPM-2) was under 2 nM, the IC50 (A253 cell line) was 1.73 nM and the IC50 (HuP-T4) was 1.3 nM. The IC50 (FaDu) was 169 nM, the IC50 (TYK-nu) was under 2 nM and the IC50 (U2OS) was 44.7 nM. For the same molecule, the IC50 (HT1197) was over 512 nM, the IC50 (HCC1954) was 24.9 nM and the IC50 (RCM-1) was 122 nM. It also gave an IC50 (BFTC-909) of 0.968 nM, an IC50 (LU-165) of over 512 nM and an IC50 (C3A) of 30.3 nM. The IC50 (HSC-2) was 2.99 nM, the IC50 (SNU-C1) was over 512 nM and the IC50 (MDA-MB-415) was over 512 nM. For the same molecule, the IC50 (NCI-H64) was 6.45 nM, the IC50 (CHP-126) was 29.8 nM and the IC50 (CAMA-1) was 10.5 nM. The IC50 (KYSE-270) was 1.49 nM, the IC50 (A204) was 17.3 nM and the IC50 (MEL-JUSO) was under 2 nM. The IC50 (NCI-H1963) was 66.2 nM, the IC50 (HCC2157) was 3.49 nM and the IC50 (SK-MEL3) was 6.51 nM. It also gave an IC50 (Daoy) of 5.34 nM, an IC50 (HSC-4) of over 512 nM and an IC50 (NCI-H2141) of 85 nM. For the same molecule, the IC50 (CAPAN-1) was 13.5 nM, the IC50 (MIA PaCa-2) was 3.3 nM and the IC50 (C32) was 309 nM. It also gave an IC50 (MKN-45) of 25.4 nM, an IC50 (RPMI-7951) of 3.98 nM and an IC50 (SCC-3) of 41.6 nM. For the same molecule, the IC50 (NCI-H650) was 296 nM, the IC50 (EGI-1) was 21.7 nM and the IC50 (G-361) was 10.7 nM. The IC50 (AN3-CA) was under 2 nM, the IC50 (KYSE-450) was 0.777 nM and the IC50 (SW780) was over 512 nM. For the same molecule, the IC50 (CHP-212) was 3 nM, the IC50 (SU-DHL-1) was over 512 nM and the IC50 (ARH-77) was 75.1 nM. The IC50 (ASPC1) was over 512 nM and the IC50 (IGR-1) was 10.5 nM.
